The source of these data is PMC7026885, “Macrofilaricidal Benzimidazole–Benzoxaborole Hybrids as an Approach to the Treatment of River Blindness: Part 1. Amide Linked Analogs” (ACS Infectious Diseases, 2019).

Data set [1] in a line: MDR1-MDCK monolayer permeability assay. The following applies: dog. The format is in vitro ADME. The procedure:
We characterized the in vitro ADME properties of 8a in preparation for evaluation of this compound in our primary in vivo model in gerbils. […] We were pleased to find that 8a was able to kill 100% of both male and female worms in the gerbil peritoneum when dosed subcutaneously at 100 mg/kg/day for 14 days as a suspension in a nonsolubilizing HEC/Tween vehicle. […] The subsequent assessment of the pharmacokinetics of 8a from these two dosing paradigms provided an interesting observation that we believe to be important in understanding the PK–PD requirements for achieving efficacy in this animal model. […] We had made the same observation in a positive control group using flubendazole at a subcutaneous dose of 10 mg/kg/day for 5 days in the nonsolubilizing HEC/Tween vehicle, namely, that plasma levels of flubendazole were maintained above the in vitro IC50 (4 nM) for over 42 days, consistent with data reported in the literature.[43] […] We next examined 8a in two additional in vivo models, the first where L3 B. pahangi larvae were injected into the peritoneum of gerbils and allowed to develop into adult worms[45] and a second where gerbils were naturally infected by the filarial nematode Litomosoides sigmodontis.[46],[47] In both of these models, 8a was administered subcutaneously at 100 mg/kg for 14 days or orally at 100 mg/kg for 28 days as a suspension. […] Additionally, when plasma obtained from treated animals at necropsy was analyzed for 8a, we observed an outcome similar to that observed in the adult implantation model, e.g., that measurable levels were present at this time point in the subcutaneous-dosed groups but not in the orally dosed groups, weeks after administration of the drug. In a final L. sigmodontis experiment with 8a, we dosed the compound subcutaneously at 300 mg/kg for 7 days as a suspension.

Data set [2] concerns Onchocerca volvulus L3 larvae. The data set can be described thus: Onchocerca volvulus L3 larval molting assay. The format is cell-based. The following applies: O. volvulus, 1 μM. On the procedure: (§1) The first three analogs from the benzimidazole 5-carboxylic acid, namely 7a (from 6-aminobenzoxaborole), 8a (from 6-aminomethyl-3,3-dimethylbenzoxaborole), and 8b (from 3-aminomethylbenzoxaborole), were prepared and tested in an Onchocerca volvulus L3 larval molting assay[34],[35] and a mammalian G2/M arrest assay[36] to evaluate antifilarial activity and selectivity, respectively (Table 1). O. volvulus is the causative agent of river blindness, and the L3 molting assay is the only widely available and reproducible assay of this filariid, the target of novel macrofilaricidal drugs.[34],[35] Other animal models (e.g., Brugia in gerbils) recapitulate aspects of lymphatic filariasis and are also used as surrogate screens for O. volvulus infections. Of the three compounds tested, 8a emerged as the most attractive compound on the basis of potency and selectivity.
Plates were incubated at 37 °C in a 5% CO2 incubator for 6 days, then molting was assessed visually using an inverted microscope. Molting was determined in each well by counting the presence of fourth stage larvae (L4s) and empty casts of L3s.
The percent inhibition of molting was calculated based on the number of treated larvae that were able to molt in comparison to the number of control larvae that had successfully molted. IC50 values were calculated using GraphPad Prism v6.0
(http://www.graphpad.com). See Bullman et al., PLoS Negl. Trop.
Adult Brugia malayi transplantation in vivo model procedure.
Gerbils (Meriones unguiculatus) were infected by transplantation of 10 male and 10 female adult Brugia malayi into the peritoneal cavity. Gerbils were acclimated for 7 days prior to treatment. Animals were dosed based on their body weight prior to each dosing. Animals were administered their doses at the same time each day and receive standard rodent laboratory diet and water ad libitum. Gerbils were humanely euthanized at the conclusion of each study. Peritoneal counts of male and female adult B. malayi and visual condition of the peritoneum were recorded.
Brugia pahangi L3 injection in vivo model procedure 8.
Male gerbils (Meriones unguiculatus) approximately 6 weeks of age (50-60 g) were purchased from Charles Rivers (USA, Kingston K62 Gerbils) and infected by intraperitoneal injection with 200 Brugia pahangi third-stage larvae (L3) per animal
(Filariatech, Inc., Athens, GA). Gerbils were housed with no more than 5 animals per cage and maintained 9 months prior to treatment. All gerbils were dosed in accordance with their body weight determined prior to each dosing. Animals were […]

In data set [3] the test system is G2/M arrest (functional indicator of interaction with mammalian tubulin). The data set can be described thus: mammalian G2/M arrest assay. The following applies: Table 3; read-out: G2/M IC50. The format is cell-based. On the procedure: as §1
Similarly, changing the point of attachment on the benzoxaborole core from 6- to 5- to afford 8d was also accompanied by increased potency in both the O. volvulus and G2/M arrest assays.

`COC(=O)Nc1nc2cc(C(=O)NCc3ccc4c(c3)B(O)OC4(C)C)ccc2n1C` [8e]: the Papp A→B (as a rule, the apparent permeability from the apical to the basolateral side of a cell layer) in data set [1] came to 1.2 ×10⁻⁶ cm/s. Also, in data set [2], the inhibition – broadly, the percentage by which the read-out fell short of the control – at 1 µM stood at 24%. Further, the IC50 in data set [3] is greater than 100 µM.
In data set [1], `COC(=O)Nc1nc2ccc(C(=O)NCc3ccc4c(c3)B(O)OC4(C)C)cc2n1C` [8f] had a Papp A→B of 1.8 ×10⁻⁶ cm/s. This compound displayed an inhibition at 1 µM in data set [2] of 29%. The IC50 in data set [3] is greater than 100 µM.
In turn, `COC(=O)Nc1nc2ccc(C(=O)N(C)Cc3ccc4c(c3)B(O)OC4(C)C)cc2[nH]1` [8g] displayed a Papp A→B in data set [1] of 0.6 ×10⁻⁶ cm/s. Besides, in data set [3], the IC50 is 4.1 µM.
For `COC(=O)Nc1nc2ccc(C(=O)N(CCN(C)C)Cc3ccc4c(c3)B(O)OC4(C)C)cc2[nH]1` [8h], the Papp A→B in data set [1] was found to be 0.14 ×10⁻⁶ cm/s. Further, the IC50 in data set [3] amounted to 35 µM.
On to `COC(=O)Nc1nc2c(F)c(C(=O)NCc3ccc4c(c3)B(O)OC4(C)C)ccc2[nH]1` [8i], for which, in data set [1], the Papp A→B turned out to be 2.35 ×10⁻⁶ cm/s. This compound showed an inhibition at 1 µM in data set [2] of 0%. The IC50 in data set [3] was 16 µM.
